# Entries after “also recorded” stand apart in the source; their conditions may differ.
# Experiments:
# [1] = system: MC38 colon cancer; test: MC38 colon cancer tumor growth (FIG. 25A); type: in vivo, mice; details: 5 mg/kg, i.p
# Method: (§1) FIGS. 25A-B is a set of curves showing the tumor growth of MC38 (FIG. 25A) or CT26 (FIG. 25B) colon cancer in mice treated with PBS (Control; closed circles), clonidine (5 mg/kg, i.p; closed squares) or apraclonidine (5 mg/kg, i.p; closed triangles).
# [2] = stated without a test; cited from earlier work
# [3] = system: CT26 colon cancer; test: CT26 colon cancer tumor growth (FIG. 25B); type: in vivo, mice; details: 5 mg/kg, i.p
# Method: as §1
# [4] = system: CT26 colon cancer; test: CT26 colon cancer tumor growth (FIGS. 15-16); type: in vivo, C57BL/6J mice
# From the text: Tumor infiltration of CD8+cells evaluated at the day of sacrifice by FACS (FIG. 15B). Tumor growth of CT26 colon cancer in NSG mice treated with PBS (Control), clonidine, clonidine mixed with yohimbine, or yohimbine alone (FIG. 15C). FIGS. 16A-C is a set of curves and histograms showing the tumor growth of CT26 colon cancer in C57BL/6J mice treated with PBS (Control, circles), guanabenz (diamonds), guanabenz mixed with yohimbine (light grey inverted triangles), or yohimbine alone (dark grey inverted triangles) (FIG. 16A); the tumor infiltration of CD8+ cells evaluated at the day of sacrifice by FACS (FIG. 16B); and the tumor growth of CT26 colon cancer in NSG mice treated with PBS (Control), guanabenz, guanabenz mixed with yohimbine, or yohimbine alone (FIG. 16C). […] For evaluation of yohimbine on the effect of clonidine and guanabenz, the mice were randomized into different groups when tumors size arrived around 100 mm^3 and received daily injections of guanabenz (5 mg/kg, i.p.), yohimbine (10 mg/kg), a mix of guanabenz (5 mg/kg, i.p.) and yohimbine (10 mg/kg, i.p.), clonidine (5 mg/kg, i.p.), a mix of clonidine (5 mg/kg, i.p.) and yohimbine (10 mg/kg, i.p.) or vehicle control.
# [5] = system: JAK2V617F allele burden; test: Myelofibrosis by JAK2V617F bone marrow transplantation, allele burden; type: in vivo, C57BL/6 mice; details: 5 mg/kg i.p. daily; Day 7 versus Day 0
# Method: Bone marrow from primary CD45.2 JAK2V617F mice was mixed 1:1 with CD45.1 C57BL/6 marrow and transplanted into lethally irradiated CD45.2 C57BL/6 recipients. 1 month after bone marrow transplantation, mice were randomized into three groups and received daily i.p injection of 5 mg/kg of clonidine, guanabenz or PBS. Blood was taken on Day 0 (Just before the treatment) and on Day 7 (7 days after the treatment). The allele burden was assessed as a fraction of CD45.2 cells along total CD45 cells in the blood of mice.
# Decreased JAK2V617F allele burden is a golden standard method to evaluate the disease progression of MF.
# [6] = system: MC38 colon carcinomas; test: MC38 colon carcinoma in wildtype mice; type: in vivo, C57BL/6 Wildtype mice; details: 5 mg/kg, i.p. daily from tumor size around 50 mm^3
# Method: (§2) C57BL/6 Wildtype or C57BL/6 Adra2a KO mice bearing MC38 colon carcinomas received daily injections of vehicle control (PBS), clonidine (5 mg/kg, i.p.) or guanabenz (5 mg/kg, i.p.), when the tumor size was around 50 mm^3, until the day of sacrifice.
# [7] = system: JAK2V617F mutated bone marrow; test: Myelofibrosis by JAK2V617F bone marrow transplantation, platelet counts; type: in vivo, mice; details: 5 mg/kg daily for three weeks
# Method: Murine femurs and tibias from JAK2V617F mutant mice were first harvested and cleaned thoroughly. Marrow cells were flushed into PBS with 2% fetal bovine serum using a 25G needle and syringe. Resulting cell suspensions were then filtered through a 40 uM cell strainer. Recipient mice were irradiated with two doses of 500 rad 4 h apart. 1 million of donor cells were injected into wild-type recipients by standard intravenous injection using a 27G insulin syringe. One week after bone marrow transplantation, mice were treated with guanabenz or clonidine at a dose of 5 mg/kg daily for three weeks. After three weeks of treatment, mice were dissected and peripheral blood was drawn by cardiac puncture, the platelet concentration was measured by Cell Counter Analyzer MS9-5V.
# [8] = system: MC38 colon carcinomas; test: MC38 colon carcinoma in Adra2a KO mice; type: in vivo, C57BL/6 Adra2a KO mice; details: 5 mg/kg, i.p. daily from tumor size around 50 mm^3
# Method: as §2
# [9] = system: prostate cancer; test: Xenograft model of prostate cancer in NSG mice treated with PBMC; type: in vivo
# [10] = system: CT26 colon carcinomas; test: CT26 colon carcinoma model, daily i.p. treatment, tumor volume; type: in vivo, BALB/c mice
# Method: Mice received a daily intra-peritoneal injection of guanabenz (5 mg/kg) or vehicle (PBS) from the day of randomization (and the day of ACT when applicable) until the day of sacrifice. For the co-administration of adrenergic receptor agonist and antagonist, BALB/c mice bearing CT26 colon carcinomas received daily injections of vehicle control, guanabenz (5 mg/kg, i.p.), or guanabenz (5 mg/kg, i.p.) plus yohimbine (10 mg/kg, i.p.), when the tumor size was around 50 mm^3, until the day of sacrifice.
# […] mice were injected subcutaneously with 2×10^6 CT26 colon tumor cells at an age of 6 to 8 weeks. […] For evaluation of yohimbine on the effect of clonidine and guanabenz, the mice were randomized into different groups when tumors size arrived around 100 mm^3 and received daily injections of guanabenz (5 mg/kg, i.p.), yohimbine (10 mg/kg), a mix of guanabenz (5 mg/kg, i.p.) and yohimbine (10 mg/kg, i.p.), clonidine (5 mg/kg, i.p.), a mix of clonidine (5 mg/kg, i.p.) and yohimbine (10 mg/kg, i.p.) or vehicle control. Tumor size was measured every 2 days and mice were sacrificed when the tumor in control group reached 1,000 mm^3.
# [11] = system: human LS411N ovarian cancer; test: LS411N xenograft with adoptive transfer of allogeneic human PBMC; type: in vivo
# Method: (§3) Adoptive transfer of human PBMC was performed when tumor size reaches 100 mm^3.
# [12] = system: human LS411N cancer; test: as above; type: in vivo; details: PBMC, clonidine mixed with yohimbine
# Method: as §3
# [13] = system: cholangiocarcinoma; details: in vitro; Kanno et al., Hepatology, 2002; cited from earlier work
compound,measurement,setting,value
Nc1cc(Cl)c(N=C2NCCN2)c(Cl)c1 [apraclonidine],tumor growth,[1],anti-tumor effect
same,crossing of the blood-brain barrier,[2],does not cross the blood-brain barrier
same,tumor growth,[3],anti-tumor effect
N=C(N)N/N=C/c1c(Cl)cccc1Cl [guanabenz],tumor growth,"[4]; CT26 colon cancer, FIGS. 15A, 16A",inhibited CT26 colon cancer tumor growth
same,JAK2V617F allele burden (CD45.2 cells among total CD45 cells in blood),[5],decrease of JAK2V617F allele burden in a number of mice
same,tumor growth,[6],significant tumor inhibition
same,platelet (PLT) counts,[7],significantly reduces the platelet (PLT) counts; also recorded: significantly reduced the high platelet counts
same,tumor inhibition in Adra2a KO mice,[8],almost completely attenuated
same,tumor growth,[9],strong tumor inhibition
same,tumor growth (tumor volume),"[10]; CT26 in BALB/c mice, 5 mg/kg, i.p. daily from tumor size around 50 mm^3 until sacrifice",promotes a decrease of the tumor volume; also recorded: strongly inhibited CT26 tumor growth
same,tumor growth,[11]; human allogenic PBMC transferred at tumor size 100 mm^3,significant tumor inhibition
COC(=O)[C@@H]1[C@H]2C[C@H]3c4[nH]c5ccccc5c4CCN3C[C@@H]2CC[C@@H]1O [yohimbine],effect of yohimbine on the inhibition of tumor growth by clonidine,"[4]; CT26, clonidine mixed with yohimbine",strongly attenuated
same,effect of yohimbine on the inhibition of tumor growth by guanabenz,"[4]; CT26, guanabenz mixed with yohimbine",strongly attenuated
same,effect of co-administered antagonist on the inhibition of tumor growth by clonidine,"[10]; CT26, clonidine 5 mg/kg i.p. plus phentolamine 5 mg/kg, propranolol 5 mg/kg or yohimbine 10 mg/kg i.p. daily",strongly attenuated; also recorded: reduced the inhibition of tumor growth
same,effect of co-administered antagonist on the inhibition of tumor growth by guanabenz,"[10]; CT26, guanabenz 5 mg/kg i.p. plus phentolamine 5 mg/kg or yohimbine 10 mg/kg i.p. daily",strongly attenuated; also recorded: reduced the inhibition of tumor growth
same,effect of yohimbine on the tumor inhibition by clonidine,[12],strongly attenuated
same,effect of yohimbine on the tumor inhibition by guanabenz,"[11]; PBMC, guanabenz mixed with yohimbine",strongly attenuated
"brimonidine tartrate [UK14,304]",cholangiocarcinoma growth,[13],significantly decreases cholangiocarcinoma growth

# Source: patent publication US20230165836A1, “ALPHA-2 ADRENERGIC RECEPTOR AGONISTS FOR THE TREATMENT OF CANCER” (UNIVERSITÉ CATHOLIQUE DE LOUVAIN, priority 2020, published 2023)
